These results are taken from US5298616A, “Sulfated O-polysaccharide-trehaloses” (Hoffmann-La Roche Inc., priority 1990, dated 1994).

In test [1] the target is T1, Factor Xa (Bos taurus, UniProt P00743). Nature of the test: anti-Xa Clotting Assay. The settings on record: concentration which doubles the coagulation time vs control; citrated plasma. The test is classed as biochemical. Here is the method:
(§1) The blood coagulation-inhibiting activity was determined as follows:
anti-Xa Clotting Assay: 25 μl of citrated plasma having various concentrations of test compound are mixed with 75 μl of Factor Xa (Diagnostic Reagents, Thame, Oxon, Great Britain) diluted 1:100 in 0.63% citrate buffer (pH 7.3) which contains 41 mM imidazole, 82 mM NaCl and 0.1% albumin. After warming to 37° C. for 2 minutes 200 μl of a 1:1 mixture of Factor X Deficient Plasma (Diagnostic Reagents) and Platelet Substitute (Diagnostic Reagents) are added and the mixture is incubated at 37° C. for 20 seconds. After the addition of 100 μl of prewarmed 50 mM calcium chloride solution the coagulation time is measured in a Fibrometer.
(§2) The activity of the test compound is given as the IC50, which is that concentration [μg/ml] which leads to a coagulation time which is double the control value.

For test [2], the target named is T1, Factor Xa. Nature of the test: Inhibition of Factor Xa in the Chromogenic Substrate Assay. Format: biochemical. Particulars: amidolytic activity reduced by 50% vs plasma control; S-2222. Here is the method: as §1
Inhibition of Thrombin or Factor Xa in the Chromogenic Substrate Assay (Teien et al., Thrombosis Research 10, 399-410 (1977)): The test was performed in a Cobas-Bio centrifugal automatic spectrophotometer. The buffer solution used consisted of 50 mM Tris buffer, 180 mM NaCl, 7.5 mM EDTA Na2, 1% PEG 6000 and 0.02% Tween 80, pH 8.4. The sample consisted of 50 μl of buffer, 30 μl of anti-thrombin Ill (1 U/ml), Kabi Diagnostics) and 20 μl of plasma which contained various concentrations of test compounds. 30 μl of sample solution and 20 μl of water with 180 μl of thrombin were added to the test cuvette in the automatic analyzer. After incubation at 37° C. for 240 seconds 60 μl of S-2238 (H-D-Phe-Pip-Arg-NH.pNA, Kabi Diagnostics, Mondal, Sweden, 0.75 mM in water) and 20 μl of water were added. The liberation of pNA (p-nitroaniline) was followed during 60 seconds at 405 nm in 10 second intervals in comparison to water as the blank. The inhibitory activity is given as the IC50, which is the concentration [μg/ml] at which the amidolytic activity of thrombin is reduced by 50% in comparison to the plasma control value.
The inhibition of Factor Xa was measured in the same manner using a solution of Factor Xa (2.8 nkat/ml and 2 mM S-2222 (Bz-CO-Ile-Glu-Arg-NH.pNA, Kabi Diagnostics) in water in place of thrombin and, respectively, S-2238.

Another test deals with thrombin (Homo sapiens, UniProt P00734). Nature of the test: Inhibition of Thrombin in the Chromogenic Substrate Assay. The test is classed as biochemical. Particulars: amidolytic activity reduced by 50% vs plasma control; anti-thrombin III, S-2238. Here is the method:
as §1
The buffer solution used consisted of 50 mM Tris buffer, 180 mM NaCl, 7.5 mM EDTA Na2, 1% PEG 6000 and 0.02% Tween 80, pH 8.4. The sample consisted of 50 μl of buffer, 30 μl of anti-thrombin Ill (1 U/ml), Kabi Diagnostics) and 20 μl of plasma which contained various concentrations of test compounds. 30 μl of sample solution and 20 μl of water with 180 μl of thrombin were added to the test cuvette in the automatic analyzer. […] The liberation of pNA (p-nitroaniline) was followed during 60 seconds at 405 nm in 10 second intervals in comparison to water as the blank.

The subject of a further test is rat smooth muscle cells. Briefly: anti-proliferative activity in cell cultures. Format: cell-based. The settings on record: for Anti-proliferative activity % inhibition: 100 μg/ml test substance, 7 days, vs non-inhibited growth. The procedure: The anti-proliferative activity of the substances was determined in cell cultures as follows: rat smooth muscle cells (cultivated in DMEM with 10% FCS at 37° C. and 5% CO2) were seeded in 24 well cell culture plates with a density of 8×10^3 cells/well. After 4 hours the number of adhered cells was determined and the substances to be tested ([…]) were added. Cells to which no substance was added served as a comparison and heparin (100 μg/ml) served as a positive control. The cells were incubated for 7 days and then the cell number was determined. The antiproliferative activity of the individual substances was calculated as the % inhibition in comparison to non-inhibited growth: [formula] wherein cell number(d=O) cell number after 4 h cell number(-)=cell number to which no test
substances was added, after 7 days.
cell number(inhib)=cell number with
100 μg/ml of the test substance.

The test system of another test is citrated human plasma. Nature of the test: aPTT (activated partial thromboplastin time) Test. The test is classed as biochemical. Particulars: concentration which doubles the coagulation time vs control. Here is the method:
as §1
aPTT (activated partial thromboplastin time) Test (see Walenga et al., CRC Critical Reviews in Laboratory Sciences 22 (4) 361-389 (1986)): 100 μl of citrated human plasma, which contains various concentrations of test compound, is incubated at 37° C. for 8 minutes with 100 μl of Activated Thrombofax (Ortho Diagnostics, Raritan, N.J., U.S.A.). 100 μl of prewarmed 25 mM calcium chloride solution are then added and the coagulation time is measured in a Fibrometer Coagulation Timer (Becton Dickinson, Basle).
as §2

T1 sequence (P00743 234-492 limits assumed): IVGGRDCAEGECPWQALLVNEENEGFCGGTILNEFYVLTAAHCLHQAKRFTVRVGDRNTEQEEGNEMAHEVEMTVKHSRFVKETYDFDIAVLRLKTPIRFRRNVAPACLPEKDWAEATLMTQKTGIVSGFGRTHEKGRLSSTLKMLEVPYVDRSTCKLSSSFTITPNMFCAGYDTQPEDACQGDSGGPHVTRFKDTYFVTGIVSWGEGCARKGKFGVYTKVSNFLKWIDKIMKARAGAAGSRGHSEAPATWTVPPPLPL

On to “sulphated 4-O-(α-D-maltotriosyl)-α,α-D-trehalose [Example 1G]”, for which, at Factor Xa [1], the “Anti-coagulation activity IC50, Coagulation inhibition Xa” value came to 31 µg/mL. In addition, on Factor Xa [2], the “Anti-coagulation activity IC50, Amidolytic activity F.Xa” value was 960 µg/mL. The “Anti-coagulation activity IC50, Amidolytic activity Thrombin” value on thrombin is above 1000 µg/mL. Further, the “Anti-proliferative activity % inhibition” value in the test with rat smooth muscle cells is 57%. Besides, the “Anti-coagulation activity IC50, Coagulation inhibition aPTT” value with citrated human plasma is 11 µg/mL.
Taken in the same sequence, the figures for “sulphated 4,4'-bis -O-(β-D-glucopyranosyl)-α,α-D-trehalose [Example 7C]” were 34 µg/mL, above 1000 µg/mL, above 1000 µg/mL, 49% and 13.5 µg/mL.
Taken in the same sequence, the figures for “sulphated 4-O-(β-D-cellobiosyl)-α,α-D-trehalose [Example 5C]” were 69 µg/mL, above 1000 µg/mL, above 1000 µg/mL, 39% and 33 µg/mL.
As to “sulphated 4,4'-bis-O-(β-D-maltosyi)-α,α-D-trehalose [Example 6D]”, the “Anti-coagulation activity IC50, Coagulation inhibition Xa” value at Factor Xa [1] is 28.5 µg/mL. For the same substance, the “Anti-coagulation activity IC50, Amidolytic activity F.Xa” value on Factor Xa [2] stood at 900 µg/mL. Moreover, the “Anti-coagulation activity IC50, Amidolytic activity Thrombin” value at thrombin is above 1000 µg/mL. Further, in the test with rat smooth muscle cells, the “Anti-proliferative activity % inhibition” value is on record as 67%. For the same substance, the “Anti-coagulation activity IC50, Coagulation inhibition aPTT” value in the test on citrated human plasma stood at 14.5 µg/mL.
In the case of “sulphated 4-O-(β-D-glucopyranosyl) -α,α-D-trehalose [Example 2C]”, the “Anti-coagulation activity IC50, Coagulation inhibition Xa” value on Factor Xa [1] turned out to be 115 µg/mL. The “Anti-coagulation activity IC50, Amidolytic activity F.Xa” value on Factor Xa [2] was above 1000 µg/mL. The “Anti-coagulation activity IC50, Amidolytic activity Thrombin” value on thrombin is above 1000 µg/mL. In addition, the “Anti-proliferative activity % inhibition” value with rat smooth muscle cells is listed as 38%. In addition, the “Anti-coagulation activity IC50, Coagulation inhibition aPTT” value in the test with citrated human plasma was 40 µg/mL.
For “sulphated 4-O -(β-D-maltotriosyl)-α,α-D-trehalose [Example 4C]”, the “Anti-coagulation activity IC50, Coagulation inhibition Xa” value on Factor Xa [1] was 32 µg/mL. The “Anti-coagulation activity IC50, Amidolytic activity F.Xa” value on Factor Xa [2] was above 1000 µg/mL. Further, the “Anti-coagulation activity IC50, Amidolytic activity Thrombin” value at thrombin is above 1000 µg/mL. Also, in the test on rat smooth muscle cells, the “Anti-proliferative activity % inhibition” value was 64%. Besides, the “Anti-coagulation activity IC50, Coagulation inhibition aPTT” value with citrated human plasma worked out at 11 µg/mL.
On to “sulphated 4-O-(β-D-maltosyl)-α,α-D-trehalose [Example 3C]”, for which, on Factor Xa [1], the “Anti-coagulation activity IC50, Coagulation inhibition Xa” value stood at 33.5 µg/mL. In addition, the “Anti-coagulation activity IC50, Amidolytic activity F.Xa” value at Factor Xa [2] is above 1000 µg/mL. In addition, on thrombin, the “Anti-coagulation activity IC50, Amidolytic activity Thrombin” value is above 1000 µg/mL. The “Anti-proliferative activity % inhibition” value in the test with rat smooth muscle cells came to 59%. Also, the “Anti-coagulation activity IC50, Coagulation inhibition aPTT” value in the test with citrated human plasma was 12 µg/mL.
As for Heparin [reference compound], the “Anti-coagulation activity IC50, Coagulation inhibition Xa” value at Factor Xa [1] is 0.6 µg/mL. On Factor Xa [2], the “Anti-coagulation activity IC50, Amidolytic activity F.Xa” value was determined as 2.7 µg/mL. Moreover, the “Anti-coagulation activity IC50, Amidolytic activity Thrombin” value at thrombin came to 1.9 µg/mL. In addition, the anti-proliferative activity entry in the test with rat smooth muscle cells (result in words) is reported as “anti-proliferatively active”. The “Anti-coagulation activity IC50, Coagulation inhibition aPTT” value with citrated human plasma came to 1.2 µg/mL.
